According to US11117855B2, “Crystalline form of triethylenetetramine tetrahydrochloride and its pharmaceutical use” (Orphalan S.A., priority 2018, dated 2021):
Where “and” joins values, the source holds several entries; their conditions need not be identical. Equal entries are not always repeated. Where two headings read alike, the source gives them in different places.

Legend:
[1] = 25° C.; for DVS weight gain at high relative humidity: 90% RH and above; for DVS weight above reference weight after sorption/desorption cycle: end of second desorption stage (0-95% RH-0%)
Protocol: Dynamic Vapour Sorption (DVS) Analysis DVS analyses are performed using an SMS DVS Intrinsic analyser (serial number PF 140088) in open aluminium pans at 25° C. with a nitrogen purge gas at 100 ml/min. The stability criterion was a weight change lower than 0.002% on a 5 minute time frame (with a minimum of 10 min and a maximum of 100 min).

[2] = Heckel test (compaction simulator, yield pressure, strain rate sensitivity); details: for Compact observations / Ejection Force / Peak Force of Upper punch / Yield Pressure: individual runs; for Yield pressure Slow (0.1 mm/s) / Yield pressure fast (300 mm/s): summary mean of runs; for Strain rate sensitivity: yield pressure at 300 mm/s compared to 0.1 mm/s
[3] = helium pycnometry; for True Density: individual runs; for True Density MEAN: mean of runs
Protocol: Determination of True Density by Helium Pychnometry.
Equipment used: Micromeritics AccuPyc II 1340
Run fill pressure 19.5 psig
Equilibration rate 0.02 psig
Percentage full scale 0.05%
Testing was performed in duplicate.

[4] = Protocol: Onset, Peak Temperatures and Enthalpies Thermogravimetric Analysis (TGA) Thermogravimetric analyses were performed using a Pyris 1 TGA analyser (serial number 537N7052501) in sealed aluminium pans, punctured before analysis, under nitrogen flush at 20 mL/min.
[5] = six months at 40° C. and 75% humidity
Protocol: TETA.4HC obtained in accordance with Reference Example 3 was compressed to form a tablet. The tablet was aged for six months at 40° C. and 75% humidity.

[6] = fast speed 300 mm/s, listed as Ref Example 3
[7] = slow speed 0.1 mm/s, listed as Ref Example 3

## Cl.Cl.Cl.Cl.NCCNCCNCCN [Example 2, triethylenetetramine tetrachloride]
[1]
  DVS weight gain at high relative humidity: ≥ 55.8%
  DVS weight above reference weight after sorption/desorption cycle: almost reaches its reference weight
[1]; listed as Form B
  DVS weight gain at high relative humidity: 50-59%
[2]; fast speed 300 mm/s
  Compact strength: 9.83 Kiloponds and 11.58 Kiloponds and 8.88 Kiloponds
  Compact observations: Good shiny
  Ejection Force: 0.441 kN and 0.456 kN and 0.417 kN
  Peak Force of Upper punch: 14.566 kN and 14.542 kN and 14.717 kN
  Yield Pressure: 129.865 Mpa and 129.108 Mpa and 129.861 Mpa
[2]; slow speed 0.1 mm/s
  Compact strength: 12.07 Kiloponds and 7.52 Kiloponds and 9.64 Kiloponds and 9.19 Kiloponds
  Compact observations: Good shiny
  Ejection Force: 0.044 kN and 0.053 kN and 0.080 kN and 0.060 kN
  Peak Force of Upper punch: 20.211 kN and 24.088 kN and 24.175 kN and 23.906 kN
  Yield Pressure: 106.465 Mpa and 117.516 Mpa and 118.116 Mpa and 115.227 Mpa
[2]
  Yield pressure Slow (0.1 mm/s): 114.33 Mpa (±5.39)
  Yield pressure fast (300 mm/s): 129.61 Mpa (±0.44)
  Strain rate sensitivity: 13.4%
[3]
  True Density: 1.3693 g/mL and 1.3973 g/mL and 1.3678 g/mL
  True Density MEAN: 1.3686 g/mL
[4]; 25-300° C., 10° C./min
  TGA weight loss (total): 10.24%
[4]; 25-300° C., 10° C./min, nitrogen
  TGA weight loss starting temperature: 225 °C
[4]; between 225.0-289.5° C.
  TGA weight loss: 2.64%
[4]; between 289.5-299.0° C.
  TGA weight loss: 7.60%

## Cl.Cl.Cl.Cl.NCCNCCNCCN [Reference Example 3, triethylenetetramine tetrachloride, reference compound]
[1]; listed as Ref Example 3
  DVS weight gain at high relative humidity: ≥ 60.8%
  DVS weight above reference weight after sorption/desorption cycle: 14.4%
[1]; listed as Form A
  DVS weight above reference weight after sorption/desorption cycle: 14-15%
[1]; second desorption stage
  DVS weight above reference weight, minimum value reached: 7.9%
[2]; fast speed 300 mm/s
  Compact strength: 4-6 Kiloponds
[2]; [6]
  Compact observations: Good but blistering
  Ejection Force: 0.421 kN and 0.327 kN and 0.381 kN
  Peak Force of Upper punch: 14.644 kN and 14.752 kN and 14.617 kN
  Yield Pressure: 127.197 Mpa and 125.309 Mpa and 129.748 Mpa
  Compact strength: 6.59 Kiloponds and 4.27 Kiloponds and 4.75 Kiloponds
[2]; slow speed 0.1 mm/s
  Compact strength: 6-11 Kiloponds
[2]; [7]
  Compact observations: Good
  Ejection Force: 0.039 kN and −0.007 kN and −0.020 kN
  Peak Force of Upper punch: 20.830 kN and 18.543 kN and 19.570 kN
  Yield Pressure: 101.529 Mpa and 95.501 Mpa and 97.474 Mpa
  Compact strength: 6.41 Kiloponds and 7.45 Kiloponds and 11.17 Kiloponds
[2]; listed as Ref Example 3
  Yield pressure Slow (0.1 mm/s): 98.17 Mpa
  Yield pressure fast (300 mm/s): 127.42 Mpa
  Strain rate sensitivity: 29.8%
[3]; listed as Ref Example 3
  True Density: 1.3523 g/mL and 1.3431 g/mL
  True Density MEAN: 1.3477 g/mL
[5]
  Tablet appearance after aging: discoloured patches
